Experimental data from ChEMBL document CHEMBL1158696, “Bioactive asterosaponins from the starfish Culcita novaeguineae” (J Nat Prod, 2005).

What was measured:
Bel-7402 = test: Cytotoxicity against human Bel7402 cells after 72 hrs by SRB assay; assay type: functional, cell-based; conditions: Bel-7402, 72 h
K562 = test: Cytotoxicity against human K562 cells after 72 hrs by MTT assay; assay type: functional, cell-based; conditions: K562, 72 h

CC(C)[C@H](C)[C@@H]1O[C@H]1[C@](C)(O)[C@H]1CC[C@H]2[C@@H]3C[C@H](O[C@@H]4O[C@H](CO)[C@@H](O)[C@H](O[C@@H]5O[C@H](C)[C@@H](O[C@@H]6OC[C@H](O)[C@H](O)[C@H]6O[C@@H]6O[C@H](C)[C@H](O)[C@H](O)[C@H]6O)[C@H](O)[C@H]5O[C@@H]5O[C@H](C)[C@H](O)[C@H](O)[C@H]5O)[C@H]4O)[C@H]4C[C@@H](OS(=O)(=O)[O-])CC[C@]4(C)C3=CC[C@]12C.[Na+] [NOVAEGUINOSIDE II]
IC50 (Bel-7402): 4.1 µg/mL | IC50 (K562): 4.9 µg/mL

CC(C)[C@H](C)[C@@H]1O[C@H]1[C@](C)(O)[C@H]1CC[C@H]2[C@@H]3C[C@H](O[C@@H]4O[C@H](CO)[C@@H](O)[C@H](O[C@@H]5O[C@H](C)[C@@H](O[C@@H]6O[C@H](C)[C@H](O)[C@H](O)[C@H]6O[C@@H]6O[C@H](C)[C@H](O)[C@H](O)[C@H]6O)[C@H](O)[C@H]5O[C@@H]5O[C@H](C)[C@H](O)[C@H](O)[C@H]5O)[C@H]4O)[C@H]4C[C@@H](OS(=O)(=O)[O-])CC[C@]4(C)C3=CC[C@]12C.[Na+] [NOVAEGUINOSIDE I]
IC50 (Bel-7402): 9.2 µg/mL | IC50 (K562): 8.6 µg/mL

CC(C)CC(=O)C[C@](C)(O)[C@H]1CC[C@H]2[C@@H]3C[C@H](O[C@@H]4O[C@H](C)[C@@H](O)[C@H](O[C@@H]5OC[C@@H](O[C@@H]6O[C@H](C)[C@H](O)[C@H](O)[C@H]6O[C@@H]6O[C@H](C)[C@H](O)[C@H](O)[C@H]6O)[C@H](O)[C@H]5O[C@@H]5O[C@H](C)[C@H](O)[C@H](O)[C@H]5O)[C@H]4O)[C@H]4C[C@@H](OS(=O)(=O)[O-])CC[C@]4(C)C3=CC[C@@]21C.[Na+] [regularoside B]
IC50 (Bel-7402): 14.5 µg/mL | IC50 (K562): 17.4 µg/mL
